Assay results taken from patent US9884818B2, “Sulphamoylpyrrolamide derivatives and the use thereof as medicaments for the treatment of hepatitis B” (Janssen Sciences Ireland UC, priority 2013, dated 2018).

Legend:
HBV [1] = test: Anti-HBV activity, HepG2.2.15 stable transfected cell line, HBV DNA from secreted virions by realtime PCR; type: cell-based; details: HepG2.2.15 cells, 6 days of treatment, HBV DNA from secreted virions, read-out: HepG2 2.15 EC50
HepG2 cells = test: Cytotoxicity in HepG2 cells, Resazurin viability assay; details: read-out: HepG2 4 days CC50; HepG2 cells, incubated for 4 days, Resazurin assay
HBV [2] = test: Anti-HBV activity, HepG2.117 inducibly HBV producing cell line (Tet-off), intracellular HBV DNA by realtime PCR; type: cell-based; details: Hepatitis B virus, HepG2.117, 72 h, HepG2.117 cells, 3 days of treatment, intracellular HBV DNA; read-out: HepG2 117 EC50
[3] = Cytotoxicity in HepG2 cells, Resazurin viability assay; details: human, HepG2 cells, HepG2 4 days CC50 (μM), incubated for 4 days, Resazurin assay
[4] = Hepatitis B virus, HepG2.2.15, 144 h

Compound	EC50 (HBV [1]) [nM]	CC50 (HepG2 cells) [nM]	EC50 (HBV [1]; [4]) [nM]	EC50 (HBV [2]) [nM]	CC50 at 4 days [3] [µM]
Cn1cc(S(=O)(=O)NC2(C(F)(F)F)CCOC2)cc1C(=O)Nc1ccc(F)c(C#N)c1 (single isomer, unassigned) [Compound 228b, N-(3-Cyano-4-fluorophenyl)-1-methyl-4-{[3-(trifluoromethyl)tetrahydrofuran-3-yl]sulfamoyl}-1H-pyrrole-2-carboxamide]	30	> 25000			
C[C@@H](NS(=O)(=O)c1cn(C)c(C(=O)Nc2ccc(F)c(C#N)c2F)c1Cl)C(F)(F)F [Compound 276, 3-chloro-N-(3-cyano-2,4-difluoro-phenyl)-1-methyl-4-[[(1R)-2,2,2-trifluoro-1-methyl-ethyl]sulfamoyl]pyrrole-2-carboxamide]			10	10	> 25
C[C@@H](NS(=O)(=O)c1cn(C)c(C(=O)Nc2ccc(F)c(Cl)c2Cl)c1Cl)C(F)(F)F [Compound 277, 3-chloro-N-(2,3-dichloro-4-fluoro-phenyl)-1-methyl-4-[[(1R)-2,2,2-trifluoro-1-methyl-ethyl]sulfamoyl]pyrrole-2-carboxamide]			30	40	> 25
C[C@@H](NS(=O)(=O)c1cn(C)c(C(=O)Nc2ccc(F)c(C(F)F)c2F)c1Cl)C(F)(F)F [Compound 278, 3-chloro-N-[3-(difluoromethyl)-2,4-difluoro-phenyl]-1-methyl-4-[[(1R)-2,2,2-trifluoro-1-methyl-ethyl]sulfamoyl]pyrrole-2-carboxamide]			6	10	> 25
C[C@@H](NS(=O)(=O)c1cn(C)c(C(=O)Nc2ccc(F)c(C(F)F)c2)c1Cl)C(F)(F)F [Compound 279, 3-chloro-N-[3-(difluoromethyl)-4-fluoro-phenyl]-1-methyl-4-[[(1R)-2,2,2-trifluoro-1-methyl-ethyl]sulfamoyl]pyrrole-2-carboxamide]			< 4	5	> 25
C[C@@H](NS(=O)(=O)c1cn(C)c(C(=O)Nc2cccc(Br)c2)c1F)C(F)(F)F [Compound 280, N-(3-bromophenyl)-3-fluoro-1-methyl-4-[[(1R)-2,2,2-trifluoro-1-methyl-ethyl]sulfamoyl]pyrrole-2-carboxamide]			5	60	> 25
Cn1cc(S(=O)(=O)NC2(C(F)(F)F)CCCC2)c(F)c1C(=O)Nc1ccc(F)c(C#N)c1 [Compound 281, N-(3-cyano-4-fluoro-phenyl)-3-fluoro-1-methyl-4-[[1-(trifluoro-methyl)cyclopentyl]sulfamoyl]pyrrole-2-carboxamide]			< 4	7	> 25
Cc1c(S(=O)(=O)N[C@H](C)C(F)(F)F)c(Cl)c(C(=O)Nc2ccc(F)c(C#N)c2)n1C [Compound 282, 3-chloro-N-(3-cyano-4-fluoro-phenyl)-1,5-dimethyl-4-[[(1R)-2,2,2-trifluoro-1-methyl-ethyl]sulfamoyl]pyrrole-2-carboxamide]			< 5	5	> 25
Cc1cc(NC(=O)c2c(F)c(S(=O)(=O)N[C@H](C)C(F)(F)F)cn2C)cc(C#N)c1F [Compound 283, N-(3-cyano-4-fluoro-5-methyl-phenyl)-3-fluoro-1-methyl-4-[[(1R)-2,2,2-trifluoro-1-methyl-ethyl]sulfamoyl]pyrrole-2-carboxamide]			20	30	> 25
C[C@@H](NS(=O)(=O)c1cn(C)c(C(=O)Nc2ccc(F)c(C(F)F)c2F)c1F)C(F)(F)F [Compound 287, N-[3-(difluoromethyl)-2,4-difluoro-phenyl]-3-fluoro-1-methyl-4-[[(1R)-2,2,2-trifluoro-1-methyl-ethyl]sulfamoyl]pyrrole-2-carboxamide]			4	5	> 25
CC[C@@H](NS(=O)(=O)c1cn(C)c(C(=O)Nc2ccc(F)c(C#N)c2)c1F)C(F)(F)F [Compound 288, N-(3-cyano-4-fluoro-phenyl)-3-fluoro-1-methyl-4-[[(1R)-1-(trifluoro-methyl)propyl]sulfamoyl]pyrrole-2-carboxamide]			7	10	> 25
CC[C@H](NS(=O)(=O)c1cn(C)c(C(=O)Nc2ccc(F)c(C#N)c2)c1Cl)C(F)(F)F [Compound 289, 3-chloro-N-(3-cyano-4-fluoro-phenyl)-1-methyl-4-[[(15)-1-(trifluoro-methyl)propyl]sulfamoyl]pyrrole-2-carboxamide]			40	50	> 25
CC(C)n1cc(S(=O)(=O)N[C@H](C)C(F)(F)F)c(Cl)c1C(=O)Nc1ccc(F)c(C#N)c1 [Compound 291, 3-chloro-N-(3-cyano-4-fluoro-phenyl)-1-isopropyl-4-[[(1R)-2,2,2-trifluoro-1-methyl-ethyl]sulfamoyl]pyrrole-2-carboxamide]			420	390	> 25
C[C@@H](NS(=O)(=O)c1cn(C)c(C(=O)Nc2ccc(F)c(C#N)c2)c1C#N)C(F)(F)F [Compound 293, 3-cyano-N-(3-cyano-4-fluoro-phenyl)-1-methyl-4-[[(1R)-2,2,2-trifluoro-1-methyl-ethyl]sulfamoyl]pyrrole-2-carboxamide]			20	50	> 25
CC[C@@H](C)NS(=O)(=O)c1cc(C(=O)Nc2ccc(F)c(C#N)c2)n(C)c1 [Compound 294, N-(3-cyano-4-fluoro-phenyl)-1-methyl-4-[[(1R)-1-methylpropyl]-sulfamoyl]pyrrole-2-carboxamide]			40	100	> 25
CC[C@@H](C)NS(=O)(=O)c1cn(C)c(C(=O)Nc2ccc(F)c(C#N)c2)c1Cl [Compound 295, 3-chloro-N-(3-cyano-4-fluoro-phenyl)-1-methyl-4-[[(1R)-1-methyl-propyl]sulfamoyl]pyrrole-2-carboxamide]			20	30	> 25
Cn1cc(S(=O)(=O)NC(C)(C)CCO)cc1C(=O)Nc1ccc(F)c(C#N)c1 [Compound 296, N-(3-cyano-4-fluoro-phenyl)-4-[(3-hydroxy-1,1-dimethyl-propyl)sulfamoyl]-1-methyl-pyrrole-2-carboxamide]			100	230	> 25
C[C@H](NS(=O)(=O)c1cc(C(=O)Nc2ccc(F)c(C#N)c2)n(C)c1)C(C)(F)F [Compound 297, N-(3-cyano-4-fluoro-phenyl)-4-[[(1S)-2,2-difluoro-1-methyl-propyl]sulfamoyl]-1-methyl-pyrrole-2-carboxamide]			40	90	22.6
C[C@@H](NS(=O)(=O)c1cc(C(=O)Nc2ccc(F)c(C#N)c2)n(C)c1)C(C)(F)F [Compound 298, N-(3-cyano-4-fluoro-phenyl)-4-[[(1R)-2,2-difluoro-1-methyl-propyl]-sulfamoyl]-1-methyl-pyrrole-2-carboxamide]			20	50	23.7
C[C@@H](NS(=O)(=O)c1cn(C2CC2)c(C(=O)Nc2ccc(F)c(C#N)c2)c1Cl)C(F)(F)F [Compound 305, 3-chloro-N-(3-cyano-4-fluoro-phenyl)-1-cyclopropyl-4-[[(1R)-2,2,2-trifluoro-1-methyl-ethyl]sulfamoyl]pyrrole-2-carboxamide]			170	350	> 25
Cn1cc(S(=O)(=O)NC2(C)COC2)c(Cl)c1C(=O)Nc1ccc(F)c(C#N)c1 [Compound 306, 3-chloro-N-(3-cyano-4-fluoro-phenyl)-1-methyl-4-[(3-methyloxetan-3-yl)sulfamoyl]-pyrrole-2-carboxamide]			30	60	> 25
COCc1c(S(=O)(=O)N[C@H](C)C(F)(F)F)c(F)c(C(=O)Nc2ccc(F)c(C#N)c2)n1C [Compound 309, N-(3-cyano-4-fluoro-phenyl)-3-fluoro-5-(methoxymethyl)-1-methyl-4-[[(1R)-2,2,2-trifluoro-1-methyl-ethyl]sulfamoyl]pyrrole-2-carboxamide]			530	320	> 25
C[C@@H](NS(=O)(=O)c1c(F)c(C(=O)Nc2ccc(F)c(C#N)c2)n(C)c1C#N)C(F)(F)F [Compound 310, 5-cyano-N-(3-cyano-4-fluoro-phenyl)-3-fluoro-1-methyl-4-[[(1R)-2,2,2-trifluoro-1-methyl-ethyl]sulfamoyl]pyrrole-2-carboxamide]			70	160	> 25
C[C@@H](NS(=O)(=O)c1cn(C)c(C(=O)Nc2cc(Cl)c(F)c(C#N)c2)c1F)C(F)(F)F [Compound 313, N-(3-chloro-5-cyano-4-fluoro-phenyl)-3-fluoro-1-methyl-4-[[(1R)-2,2,2-trifluoro-1-methyl-ethyl]sulfamoyl]pyrrole-2-carboxamide]			20	50	> 25
Cc1c(S(=O)(=O)N[C@H](C)C(F)(F)F)c(C#N)c(C(=O)Nc2ccc(F)c(C#N)c2)n1C [Compound 316, 3-cyano-N-(3-cyano-4-fluoro-phenyl)-1,5-dimethyl-4-[[(1R)-2,2,2-trifluoro-1-methyl-ethyl]sulfamoyl]pyrrole-2-carboxamide]			50	50	> 25
